pIC50: −log10 of the molar value.
Target: T1, Human 5-lipoxygenase (Homo sapiens, UniProt P09917)
T1 construct: purchased Cayman 60402; host or cells: insect cells
T1 sequence (P09917 1-674): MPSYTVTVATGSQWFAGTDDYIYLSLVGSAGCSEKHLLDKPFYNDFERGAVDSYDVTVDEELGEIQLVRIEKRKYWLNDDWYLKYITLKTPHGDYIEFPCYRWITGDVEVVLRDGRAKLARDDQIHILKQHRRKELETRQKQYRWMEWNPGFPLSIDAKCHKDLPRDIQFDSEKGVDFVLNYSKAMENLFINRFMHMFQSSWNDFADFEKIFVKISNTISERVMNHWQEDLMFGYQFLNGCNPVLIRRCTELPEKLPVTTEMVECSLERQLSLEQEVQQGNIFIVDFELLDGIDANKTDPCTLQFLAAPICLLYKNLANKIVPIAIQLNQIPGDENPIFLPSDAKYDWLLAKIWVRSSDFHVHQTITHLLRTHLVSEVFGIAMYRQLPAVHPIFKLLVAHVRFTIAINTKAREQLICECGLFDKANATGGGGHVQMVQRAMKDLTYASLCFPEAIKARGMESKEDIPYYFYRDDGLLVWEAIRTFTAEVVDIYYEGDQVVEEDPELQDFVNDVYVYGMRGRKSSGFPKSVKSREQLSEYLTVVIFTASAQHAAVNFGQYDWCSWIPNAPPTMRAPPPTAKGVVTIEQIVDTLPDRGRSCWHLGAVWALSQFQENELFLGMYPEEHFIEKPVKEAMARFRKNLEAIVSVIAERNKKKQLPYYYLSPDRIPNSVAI
Experiment: Activity of compounds against 5-LO enzyme (LTB4 measurement and/or fluorescence method)
Assay type: biochemical
Settings: for inhibition at 10 µM: 5-LO, single concentration of 10 uM in duplicate; for pIC50: 6 or 11 point dose response in duplicate
Outline: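 Two read-outs: LTB4 measured by EIA and/or LC/MS/MS with LTB4-d4 standard after 15 min RT compound preincubation with insect-cell 5-LO and a 5 min 37 °C reaction on 3 uM arachidonic acid (0.1 mM ATP, pH 7.4). The room-temperature fluorescence format used 20 uM H2DCFDA, 100 uM ATP, 3 uM arachidonic acid, 5 min; IC50 from 6/11-point curves.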

| inhibition at 10 µM | pIC50 | Compound |
| --- | --- | --- |
| < 40% | – | CCc1nc2ccc(Cl)cn2c1C(=O)NCc1ccc(N2CCCCC2C)cc1 (stereo not drawn) [compound 251, 6-chloro-2-ethyl-N-(4-(2-methylpiperidin-1-yl)benzyl)imidazo[1,2-a]pyridine-3-carboxamide] |
| < 40% | – | CCc1nc2ccc(Cl)cn2c1C(=O)NCc1ccc(N2CCC(C)(O)CC2)cc1 [compound 321, 6-chloro-2-ethyl-N-(4-(4-hydroxy-4-methylpiperidin-1-yl)benzyl)imidazo[1,2-a]pyridine-3-carboxamide] |
| 40 to 69% | – | CCc1nc2ccc(C)cn2c1C(=O)NCc1ccc(-c2ccccc2)cc1 [compound 57, N-(Biphenyl-4-ylmethyl)-2-ethyl-6-methylimidazo[1,2-a]pyridine-3-carboxamide] |
| – | < 4.70 | CCc1nc2ccc(Cl)cn2c1C(=O)N1CCC(OCc2ccccc2)CC1 [compound 330, (4-(benzyloxy)piperidin-1-yl)(6-chloro-2-ethylimidazo[1,2-a]pyridin-3-yl)methanone] |
| < 40% | – | Cc1nc2ccccn2c1C(=O)NCCOCc1ccccc1 [compound 29, N-(2-(Benzyloxy)ethyl)-2-methylimidazo[1,2-a]pyridine-3-carboxamide] |
| 40 to 69% | – | CCc1nc2cc(Cl)ccn2c1C(=O)NCc1ccc(OC(F)(F)F)cc1 [compound 107, 7-Chloro-2-ethyl-N-(4-(trifluoromethoxy)benzyl)imidazo[1,2-a]pyridine-3-carboxamide] |
| < 40% | – | Cc1nc2ccccn2c1C(=O)NCCOc1ccccc1 [compound 28, 2-Methyl-N-(2-phenoxyethyl)imidazo[1,2-a]pyridine-3-carboxamide] |
| < 40% | – | CCc1nc2ccc(Cl)cn2c1C(=O)NCc1ccc(N2CCN(C(=O)c3ccc(F)cc3)CC2)cc1 [compound 319, 6-chloro-2-ethyl-N-(4-(4-(4-fluorobenzoyl)piperazin-1-yl)benzyl)imidazo[1,2-a]pyridine-3-carboxamide] |
| 40 to 69% | – | CCc1nc2cc(Cl)ccn2c1C(=O)NCc1ccc(-c2ccc(C)cc2)cc1 [compound 87, 7-Chloro-2-ethyl-N-((4′-methylbiphenyl-4-yl)methyl)imidazo[1,2-a]pyridine-3-carboxamide] |
| < 40% | – | Cc1nc2ccccn2c1C(=O)NCc1ccccc1 [compound 3, N-Benzyl-2-methylimidazo[1,2-a]pyridine-3-carboxamide] |
| – | < 4.70 | CCc1nc2cccnn2c1C(=O)NCc1ccc(-c2ccc(Cl)cc2)cc1 [compound 388, N-((4′-Chloro-[1,1′-biphenyl]-4-yl)methyl)-2-ethylimidazo[1,2-b]pyridazine-3-carboxamide] |
| < 40% | – | Cc1nc2ccccn2c1C(=O)Nc1ccc(OCc2ccccc2)cc1 [compound 14, N-(4-(Benzyloxy)phenyl)-2-methylimidazo[1,2-a]pyridine-3-carboxamide] |
| < 40% | – | CCc1nc2cnccn2c1C(=O)NCc1ccc(-c2ccc(Cl)cc2)cc1 [compound 71, N-((4′-Chlorobiphenyl-4-yl)methyl)-2-ethylimidazo[1,2-a]pyrazine-3-carboxamide] |
| > 69% | < 4.70 | CCc1nc2cc(Cl)ccn2c1C(=O)NCc1ccc(N2CCC(Oc3ccc(OC(F)(F)F)cc3)CC2)cc1 [compound 123, 7-Chloro-2-ethyl-N-(4-(4-(4-(trifluoromethoxy)phenoxy)piperidin-1-yl)benzyl)imidazo[1,2-a]pyridine-3-carboxamide] |
| < 40% | – | CCc1nc2ccc(Cl)cn2c1C(=O)NCc1ccc(N2CCC(OCc3ccc(F)cc3)CC2)cc1 [compound 300, 6-Chloro-2-ethyl-N-(4-(4-(4-fluorobenzyloxy)piperidin-1-yl)benzyl)imidazo[1,2-a]pyridine-3-carboxamide] |
| < 40% | – | CCc1nc2cc(OC)ccn2c1C(=O)NCc1ccc(N2CCOCC2)cc1 [compound 261, 2-Ethyl-7-methoxy-N-(4-morpholinobenzyl)imidazo[1,2-a]pyridine-3-carboxamide] |
| > 69% | – | CCc1nc2cc(Cl)ccn2c1CNc1ccc(N2CCC(c3ccc(OC(F)(F)F)cc3)CC2)cc1 [compound 376, N-((7-chloro-2-ethylimidazo[1,2-a]pyridin-3-yl)methyl)-4-(4-(4-(trifluoromethoxy)phenyl)piperidin-1-yl)aniline] |
| < 40% | – | CCc1nc2ccc(Cl)cn2c1C(=O)N1CCC(OCc2ccc(OC)cc2)CC1 [compound 335, (6-chloro-2-ethylimidazo[1,2-a]pyridin-3-yl)(4-((4-methoxybenzyl)oxy)piperidin-1-yl)methanone] |
| < 40% | – | CCc1nc2cc(C)ccn2c1C(=O)NCc1ccc(OC(F)(F)F)cc1 [compound 280, 2-Ethyl-7-methyl-N-(4-(trifluoromethoxy)benzyl)imidazo[1,2-a]pyridine-3-carboxamide] |
| < 40% | – | CCc1nc2ccc(Cl)cn2c1C(=O)NCc1ccc(Cl)cc1 [compound 78, 6-Chloro-N-(4-chlorobenzyl)-2-ethylimidazo[1,2-a]pyridine-3-carboxamide] |
| < 40% | – | CCc1nc2cc(Cl)ccn2c1C(=O)NCc1ccc(-c2ccc(F)cc2)cc1 [compound 56, 7-Chloro-2-ethyl-N-((4′-fluorobiphenyl-4-yl)methyl)imidazo[1,2-a]pyridine-3-carboxamide] |
| < 40% | – | Cc1nc2ccccn2c1C(=O)NCC1CCN(C(=O)OC(C)(C)C)CC1 [compound 10, tert-Butyl 4-((2-methylimidazo[1,2-a]pyridine-3-carboxamido)methyl)piperidine-1-carboxylate] |
| 40 to 69% | – | CCc1nc2cc(Cl)ccn2c1C(=O)NCc1ccc(OCc2ccc(F)cc2)cc1 [compound 173, 7-Chloro-2-ethyl-N-(4-(4-fluorobenzyloxy)benzyl)imidazo[1,2-a]pyridine-3-carboxamide] |
| 40 to 69% | – | CCc1nc2cc(Br)ccn2c1C(=O)NCc1ccc(OC(F)(F)F)cc1 [compound 281, 7-Bromo-2-ethyl-N-(4-(trifluoromethoxy)benzyl)imidazo[1,2-a]pyridine-3-carboxamide] |
| < 40% | – | CCc1nc2cc(OC)ccn2c1C(=O)NCc1ccc(OC(F)(F)F)cc1 [compound 118, 2-Ethyl-7-methoxy-N-(4-(trifluoromethoxy)benzyl)imidazo[1,2-a]pyridine-3-carboxamide] |
| 40 to 69% | – | CCc1nc2cc(Cl)ccn2c1C(=O)NCc1ccc2ccccc2c1 [compound 90, 7-Chloro-2-ethyl-N-(naphthalen-2-ylmethyl)imidazo[1,2-a]pyridine-3-carboxamide] |
| < 40% | – | CCc1nc2cc(Cl)ccn2c1C(=O)NCc1ccc(N2CCC(C(=O)O)CC2)cc1 [compound 275, 1-(4-((7-Chloro-2-ethylimidazo[1,2-a]pyridine-3-carboxamido)methyl)phenyl)piperidine-4-carboxylic acid] |
| 40 to 69% | – | CCc1nc2cc(Cl)ccn2c1C(=O)NCc1ccn(-c2ccc(OC(F)(F)F)cc2)n1 [compound 133, 7-Chloro-2-ethyl-N-((1-(4-(trifluoromethoxy)phenyl)-1H-pyrazol-3-yl)methyl)imidazo[1,2-a]pyridine-3-carboxamide] |
| < 40% | – | Cc1nc2c(Cl)cccn2c1C(=O)NCc1ccccc1 [compound 15, N-Benzyl-8-chloro-2-methylimidazo[1,2-a]pyridine-3-carboxamide] |

Source: patent US9029389B2 (Institut Pasteur Korea, priority 2011, dated 2015)
